Earlier results as cited in patent US4535081A, “Antiallergic and antiulcer 1-oxo-1H-thiazolo[3,2-a]pyrimidine-2-carboxamides and intermediates therefor” (Pfizer Inc., priority 1983, dated 1985).

Tests used:
gastric ulcers = conditions: literature; cited from earlier work
gastric acid secretion = conditions: literature; cited from earlier work

Structure (SMILES) | effect on gastric ulcers (gastric ulcers) | effect on ulcers / gastric acid secretion (gastric acid secretion)
CC1(C)[C@@H](OC(=O)CCC(=O)O)CC[C@]2(C)[C@H]3C(=O)C=C4[C@@H]5C[C@@](C)(C(=O)O)CC[C@]5(C)CC[C@@]4(C)[C@]3(C)CC[C@@H]12 [carbenoxolone sodium] | prevent formation of and to accelerate healing of gastric ulcers in animals, including humans | –
CN/C(=N/CCSCc1nc[nH]c1C)NC#N [cimetidine] | – | alleviates ulcers by reducing gastric acid secretion
